Test results: patent publication US11535607B2, “Isoindolines as HDAC inhibitors” (Valo Health, Inc., priority 2018, dated 2022)
In brackets after ≈: the same amount, converted by molar mass. Like-named read-outs stand apart in the source and are kept apart here.

Legend:
HDAC6 = HDAC6 (Homo sapiens (Human), UniProt Q9UBN7); experiment: HDAC6 electrophoretic mobility shift assay; type: biochemical; conditions: for IC50: mobility shift assay
[1] = In vitro intrinsic clearance after incubation with mouse liver microsomes; type: in vitro ADME; conditions: for microsomal stability, in words: comparison
full-length human HDAC11 [2] = target: T1, full-length human HDAC11 (Homo sapiens (Human), UniProt Q96DB2); experiment: Probe binding HDAC11 time resolved fluorescence (TRF) assay; conditions: Table 2, read-out: HDAC11 IC50 Range
full-length human HDAC11 [3] = target: T1, full-length human HDAC11; experiment: HDAC11 deacetylase electrophoretic mobility shift assay (Nanosyn); type: biochemical; conditions: for HDAC11 potency, in words: comparison with parent or lead compound; for IC50: mobility shift assay
Protocol: The measurement of HD AC 11 deacetylase activity was performed using an electrophoretic mobility shift assay by Nanosyn (Santa Clara, Calif.). Full length human recombinant HD AC 11 protein was expressed in baculoviral system and purified by affinity chromatography. The enzymatic reactions were assembled in 384 well plates in a total volume of 25 μL in a reaction buffer composing: 100 mM HEPES, pH 7.5, 25 mM KCl, 0.1% bovine serum albumin, 0.01% Triton X-100, 1% DMSO (from compounds), 2 μM of the fluorescently labeled peptide substrate and enzyme. The enzyme was added at a final concentration of 10 nM. The peptide substrate FAM-RHKK(tri-fluor-Ac)—NH2 was used. The compounds were tested at 12 concentrations spaced by 3× dilution intervals. Negative control samples (0%-inhibition in the absence of inhibitor) and positive control samples (100%-inhibition) were assembled in replicates of four in each assay plate. The reactions were incubated at 25° C. and quenched by the addition of 45 μL of termination buffer (100 mM HEPES, pH 7.5, 0.01% Triton X-100, 0.05% SDS).
The terminated assay plates were analyzed on LabChip® 3000 microfluidic electrophoresis instrument (Perkin Elmer/Caliper Life Sciences). The fluorescence intensity of the electrophoretically separated de-acetylated product and substrate peptide was measured. Activity in each sample was determined as the product to sum ratio (PSR): P/(S+P), where P is the peak height of the product peptide and S is the peak height of the substrate peptide. Percent inhibition (Pinh) is determined using the following equation: Pinh=(PSR0%−PSRinh)/(PSR0%−PSR100%)*100, where PSRinh, is the product sum ratio in the presence of inhibitor, PSR0% is the average product sum ration in the absence of inhibitor and PSR100% is the average product sum ratio in 100%-inhibition control samples. The IC50 values of inhibitors were determined by fitting the percent inhibition curves with 4 parameter dose-response model using XLfit 4 software.

HDAC11 = HDAC11 (Homo sapiens (Human), UniProt Q96DB2); experiment: Lipophilic efficiency (pIC50 HDAC11 - clogD7.4)
[4] = Kinetic solubility at pH 7.4; type: physicochemical; conditions: aqueous buffer, kinetic from dmso stock
[5] = target: HDAC11 fused to Nanoluc luciferase (Homo sapiens (Human), UniProt Q96DB2); experiment: BRET target engagement cell assay
HDAC5 = HDAC5 (Homo sapiens (Human), UniProt Q9UQL6); experiment: HDAC5 electrophoretic mobility shift assay; type: biochemical; conditions: Table 7, read-out: HDAC IC50, HDAC 5
HDAC7 = HDAC7 (Homo sapiens (Human), UniProt Q8WUI4); experiment: HDAC7 electrophoretic mobility shift assay; type: biochemical; conditions: Table 7, read-out: HDAC IC50, HDAC 7
HDAC9 = HDAC9 (Homo sapiens (Human), UniProt Q9UKV0); experiment: HDAC9 electrophoretic mobility shift assay; type: biochemical; conditions: Table 7, read-out: HDAC IC50, HDAC 9
[6] = Mouse pharmacokinetic study (i.v. and i.p.); type: in vivo
Protocol: Based on its overall in vitro profile, 22-8 was advanced to mouse PK studies to measure its suitability as an in vivo tool compound. The pharmacokinetic properties of 22-8 were assessed in male Balb/c nude mice following both intravenous (i.v.) and intraperitoneal (i.p.) dosing (Table 8).

[7] = pIC50 HDAC11 - clogD7.4, Table 5
[8] = pIC50 HDAC11 - clogD7.4, Table 6
[9] = read-out: HDAC11 BRET IC50, BRET cell assay, Table 6
[10] = IP 5 mg/kg, male Balb/c nude mice
[11] = mouse, in vivo, IP 5 mg/kg, male Balb/c nude mice
[12] = mouse, in vivo, IV 1 mg/kg, male Balb/c nude mice
[13] = Table 3, mean of at least two runs, read-out: HDAC 11 IC50
[14] = Table 3, mean of at least two runs, read-out: HDAC 6 IC50
[15] = pIC50 HDAC11 - clogD7.4, Table 4

T1 sequence (Q96DB2 whole entry): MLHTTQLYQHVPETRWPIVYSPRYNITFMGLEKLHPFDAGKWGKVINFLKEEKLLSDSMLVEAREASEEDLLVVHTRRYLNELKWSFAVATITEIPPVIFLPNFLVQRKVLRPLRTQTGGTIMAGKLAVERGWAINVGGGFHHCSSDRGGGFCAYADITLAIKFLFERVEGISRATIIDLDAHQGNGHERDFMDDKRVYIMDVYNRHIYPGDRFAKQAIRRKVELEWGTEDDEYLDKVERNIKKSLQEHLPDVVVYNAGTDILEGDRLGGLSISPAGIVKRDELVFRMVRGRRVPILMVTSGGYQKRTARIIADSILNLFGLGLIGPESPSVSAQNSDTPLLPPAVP
Sequence of HDAC11 fused to Nanoluc luciferase (Q96DB2 whole entry, the tested form may be a part): as the sequence (Q96DB2 whole entry) above
Sequence of HDAC11 (Q96DB2 whole entry): as above
Sequence of HDAC6 (Q9UBN7 whole entry, species assumed): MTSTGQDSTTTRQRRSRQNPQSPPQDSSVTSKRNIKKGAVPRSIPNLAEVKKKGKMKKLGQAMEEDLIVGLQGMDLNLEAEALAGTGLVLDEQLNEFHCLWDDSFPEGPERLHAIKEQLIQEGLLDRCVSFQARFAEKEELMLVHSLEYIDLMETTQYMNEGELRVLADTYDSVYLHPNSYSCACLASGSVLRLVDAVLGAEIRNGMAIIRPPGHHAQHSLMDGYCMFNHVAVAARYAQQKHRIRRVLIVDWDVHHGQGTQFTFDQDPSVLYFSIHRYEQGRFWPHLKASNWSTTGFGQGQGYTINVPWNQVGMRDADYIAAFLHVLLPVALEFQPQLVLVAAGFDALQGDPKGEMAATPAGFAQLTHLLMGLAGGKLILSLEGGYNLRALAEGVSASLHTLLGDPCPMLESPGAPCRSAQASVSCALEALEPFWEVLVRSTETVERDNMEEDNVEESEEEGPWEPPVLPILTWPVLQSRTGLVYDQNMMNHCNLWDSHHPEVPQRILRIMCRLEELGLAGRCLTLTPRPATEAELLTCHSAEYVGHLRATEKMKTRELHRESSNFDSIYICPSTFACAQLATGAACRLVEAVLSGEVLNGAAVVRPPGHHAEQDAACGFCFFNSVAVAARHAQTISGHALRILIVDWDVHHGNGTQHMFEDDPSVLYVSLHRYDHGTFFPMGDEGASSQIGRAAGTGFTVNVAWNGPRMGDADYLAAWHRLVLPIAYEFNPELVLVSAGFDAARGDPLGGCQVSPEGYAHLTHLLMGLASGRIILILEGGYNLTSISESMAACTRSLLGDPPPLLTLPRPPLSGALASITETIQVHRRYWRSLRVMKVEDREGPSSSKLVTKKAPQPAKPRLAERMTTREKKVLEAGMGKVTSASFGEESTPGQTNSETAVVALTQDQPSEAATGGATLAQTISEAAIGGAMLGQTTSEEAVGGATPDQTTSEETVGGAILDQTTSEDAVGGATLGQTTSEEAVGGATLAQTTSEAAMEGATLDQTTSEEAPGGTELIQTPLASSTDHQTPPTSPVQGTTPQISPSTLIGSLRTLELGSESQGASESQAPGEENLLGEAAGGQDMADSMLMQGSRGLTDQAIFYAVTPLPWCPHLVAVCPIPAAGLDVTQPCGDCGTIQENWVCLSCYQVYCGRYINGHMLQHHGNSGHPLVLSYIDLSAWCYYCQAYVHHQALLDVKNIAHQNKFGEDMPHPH
Sequence of HDAC9 (Q9UKV0 whole entry): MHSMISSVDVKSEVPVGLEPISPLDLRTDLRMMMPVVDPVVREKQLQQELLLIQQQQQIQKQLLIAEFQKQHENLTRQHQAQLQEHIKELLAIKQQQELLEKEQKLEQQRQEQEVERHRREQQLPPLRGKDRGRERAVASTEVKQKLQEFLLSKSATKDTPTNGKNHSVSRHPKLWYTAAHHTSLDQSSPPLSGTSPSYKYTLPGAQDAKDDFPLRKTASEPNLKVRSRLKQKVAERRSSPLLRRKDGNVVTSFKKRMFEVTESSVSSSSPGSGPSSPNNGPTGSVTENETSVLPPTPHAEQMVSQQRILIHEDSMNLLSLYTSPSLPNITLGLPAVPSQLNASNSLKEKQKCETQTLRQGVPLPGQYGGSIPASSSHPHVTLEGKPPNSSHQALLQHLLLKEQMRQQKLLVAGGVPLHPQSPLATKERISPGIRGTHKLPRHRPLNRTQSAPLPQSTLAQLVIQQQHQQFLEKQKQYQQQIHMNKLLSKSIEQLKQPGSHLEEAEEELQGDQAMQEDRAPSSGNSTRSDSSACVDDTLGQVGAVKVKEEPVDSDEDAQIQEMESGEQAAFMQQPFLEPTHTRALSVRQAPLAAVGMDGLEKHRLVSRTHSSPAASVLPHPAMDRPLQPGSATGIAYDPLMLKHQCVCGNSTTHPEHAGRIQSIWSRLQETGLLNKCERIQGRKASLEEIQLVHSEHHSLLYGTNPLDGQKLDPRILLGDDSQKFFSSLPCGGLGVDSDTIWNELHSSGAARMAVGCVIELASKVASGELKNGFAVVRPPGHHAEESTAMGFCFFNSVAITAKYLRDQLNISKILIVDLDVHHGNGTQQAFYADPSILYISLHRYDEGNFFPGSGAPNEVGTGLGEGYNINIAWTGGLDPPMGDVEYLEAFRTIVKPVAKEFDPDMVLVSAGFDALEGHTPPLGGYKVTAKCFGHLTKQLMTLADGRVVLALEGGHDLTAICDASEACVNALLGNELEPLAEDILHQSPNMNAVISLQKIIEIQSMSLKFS
Sequence of HDAC5 (Q9UQL6 whole entry): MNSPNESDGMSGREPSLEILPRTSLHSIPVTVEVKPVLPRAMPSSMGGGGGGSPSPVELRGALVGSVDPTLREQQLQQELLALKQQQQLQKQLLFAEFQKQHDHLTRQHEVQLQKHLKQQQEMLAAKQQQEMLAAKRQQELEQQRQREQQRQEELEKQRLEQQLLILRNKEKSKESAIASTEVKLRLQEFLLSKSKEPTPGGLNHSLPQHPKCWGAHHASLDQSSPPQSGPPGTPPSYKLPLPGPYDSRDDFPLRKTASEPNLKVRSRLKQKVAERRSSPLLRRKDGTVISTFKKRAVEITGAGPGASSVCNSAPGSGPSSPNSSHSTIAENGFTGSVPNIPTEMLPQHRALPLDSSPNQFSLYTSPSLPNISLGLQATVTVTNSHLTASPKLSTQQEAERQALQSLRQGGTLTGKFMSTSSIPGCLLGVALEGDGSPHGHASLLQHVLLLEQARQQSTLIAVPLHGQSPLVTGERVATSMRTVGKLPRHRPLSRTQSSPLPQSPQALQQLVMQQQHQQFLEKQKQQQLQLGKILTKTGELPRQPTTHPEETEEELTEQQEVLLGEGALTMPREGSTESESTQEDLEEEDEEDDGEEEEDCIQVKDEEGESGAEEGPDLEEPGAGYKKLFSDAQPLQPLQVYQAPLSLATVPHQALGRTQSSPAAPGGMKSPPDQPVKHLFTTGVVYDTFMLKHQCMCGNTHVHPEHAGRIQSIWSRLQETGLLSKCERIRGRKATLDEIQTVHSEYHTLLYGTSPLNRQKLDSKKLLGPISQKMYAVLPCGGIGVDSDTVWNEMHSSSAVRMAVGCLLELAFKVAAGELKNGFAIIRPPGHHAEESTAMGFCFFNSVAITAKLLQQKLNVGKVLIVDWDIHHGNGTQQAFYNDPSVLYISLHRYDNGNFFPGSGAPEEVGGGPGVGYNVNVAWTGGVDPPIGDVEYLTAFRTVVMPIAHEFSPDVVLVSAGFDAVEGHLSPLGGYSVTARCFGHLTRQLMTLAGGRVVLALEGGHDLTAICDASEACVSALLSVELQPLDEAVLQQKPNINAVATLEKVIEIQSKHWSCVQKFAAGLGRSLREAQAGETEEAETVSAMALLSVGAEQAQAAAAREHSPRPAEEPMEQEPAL
Sequence of HDAC7 (Q8WUI4 whole entry): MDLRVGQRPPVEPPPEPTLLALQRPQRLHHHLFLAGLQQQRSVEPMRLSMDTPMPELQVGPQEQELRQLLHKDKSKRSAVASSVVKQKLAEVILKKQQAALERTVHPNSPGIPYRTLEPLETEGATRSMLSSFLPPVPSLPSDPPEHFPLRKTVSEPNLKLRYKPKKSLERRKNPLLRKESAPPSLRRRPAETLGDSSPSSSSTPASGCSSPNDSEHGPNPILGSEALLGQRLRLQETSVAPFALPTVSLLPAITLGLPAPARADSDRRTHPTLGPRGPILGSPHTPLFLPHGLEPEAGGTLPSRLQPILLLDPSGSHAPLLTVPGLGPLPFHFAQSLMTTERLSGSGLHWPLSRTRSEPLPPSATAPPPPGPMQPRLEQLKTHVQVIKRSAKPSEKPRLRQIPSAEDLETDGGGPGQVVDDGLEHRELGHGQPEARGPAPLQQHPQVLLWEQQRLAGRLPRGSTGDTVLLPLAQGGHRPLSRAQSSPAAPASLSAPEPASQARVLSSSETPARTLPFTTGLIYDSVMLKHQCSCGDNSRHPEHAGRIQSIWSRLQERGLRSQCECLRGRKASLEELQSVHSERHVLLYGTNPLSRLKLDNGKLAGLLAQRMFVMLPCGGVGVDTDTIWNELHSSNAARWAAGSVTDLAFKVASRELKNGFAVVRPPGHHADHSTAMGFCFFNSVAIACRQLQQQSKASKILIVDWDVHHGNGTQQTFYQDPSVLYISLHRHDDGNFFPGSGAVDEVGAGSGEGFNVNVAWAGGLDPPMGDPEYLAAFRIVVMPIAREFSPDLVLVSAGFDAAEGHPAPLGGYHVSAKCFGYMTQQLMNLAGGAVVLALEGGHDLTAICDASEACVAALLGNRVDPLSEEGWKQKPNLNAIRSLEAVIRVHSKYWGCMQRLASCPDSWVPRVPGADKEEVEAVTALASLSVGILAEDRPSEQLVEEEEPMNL

SMILES | IC50 (full-length human HDAC11 [2]) [nM] | HDAC11 potency, in words (full-length human HDAC11 [3]) | IC50 (full-length human HDAC11 [3]; Table 6, read-out: HDAC11 IC50) [nM] | microsomal CLint ([1]; Table 6) [µL/min/mg] | LipE (HDAC11; [8]) | solubility [4] [µM] | IC50 [5, 9] [nM] | other results
O=C(NO)c1cccc2c1CN(c1nc3ccccc3[nH]1)C2 [Compound 1-6, 2-(1H-benzo[d]imidazol-2-yl)-N-hydroxyisoindoline-4-carboxamide] | – | – | – | – | – | – | – | IC50 (HDAC6; Table 4, read-out: HDAC6 IC50): > 1000 nM; microsomal CLint ([1]; Table 4, read-out: m-CL-int): < 50 µL/min/mg; m-CLint ([1]; Table 5): +++ (indicates a m-CLint below 50 μL/min/mg); microsomal stability, in words [1]: significant microsomal stability
O=C(NO)c1cccc2c1CN(c1nc3ccccc3o1)C2 [Compound 15-1, 2-(benzo[d]oxazol-2-yl)-N-hydroxyisoindoline-4-carboxamide] | < 500 | improved potency | – | – | – | – | – | IC50 (full-length human HDAC11 [3]; Table 5, read-out: HDAC11 IC50): < 500 nM; microsomal CLint ([1]; Table 5): > 100 µL/min/mg; microsomal stability, in words [1]: significant loss of microsomal stability; LipE (HDAC11; [7]): +++ (indicates a LipE>6.5)
CC1(C)c2cccc(C(=O)NO)c2CN1c1nc2ccc(C(F)(F)F)cc2[nH]1 [Compound 17-1, N-hydroxy-1,1-dimethyl-2-(6-(trifluoromethyl)-1H-benzo[d]imidazol-2-yl)isoindoline-4-carboxamide] | < 500 | retained the potency | < 500 | < 50 | ++ (indicates 5.5<LipE≤6.5) | 30 to 55 (≈ 11.7 to 21.5 µg/mL) | – | microsomal stability, in words [1]: significant increase in stability
CC1(C)c2cccc(C(=O)NO)c2CN1c1nc2cc(C(F)(F)F)ccc2o1 [Compound 18-1, N-hydroxy-1,1-dimethyl-2-[5-(trifluoromethyl)-1,3-benzoxazol-2-yl]-2,3-dihydro-1H-isoindole-4-carboxamide] | < 500 | – | < 500 | < 50 | ++ (indicates 5.5<LipE≤6.5) | ≤ 30 | – | –
CC1(C)c2cccc(C(=O)NO)c2CN1c1nc2ncccc2o1 [Compound 18-2, N-hydroxy-1,1-dimethyl-2-(oxazolo[4,5-b]pyridin-2-yl)isoindoline-4-carboxamide] | < 500 | – | < 500 | < 50 | +++ (indicates a LipE>6.5) | > 55 | < 500 | –
CC1(C)c2cccc(C(=O)NO)c2CN1c1ccc(C(F)(F)F)cn1 [Compound 22-2, N-hydroxy-1,1-dimethyl-2-(5-(trifluoromethyl)pyridin-2-yl)isoindoline-4-carboxamide] | < 500 | – | < 500 | < 50 | ++ (indicates 5.5<LipE≤6.5) | ≤ 30 | < 500 | –
CC1(C)c2cccc(C(=O)NO)c2CN1c1ccc(C(F)(F)F)nc1 [Compound 22-3, N-hydroxy-1,1-dimethyl-2-(6-(trifluoromethyl)pyridin-3-yl)isoindoline-4-carboxamide] | < 500 | – | < 500 | < 50 | ++ (indicates 5.5<LipE≤6.5) | 30 to 55 (≈ 10.5 to 19.3 µg/mL) | < 500 | IC50 [5]: < 20 nM
CC1(C)c2cccc(C(=O)NO)c2CN1c1ncc(C(F)(F)F)cn1 [Compound 22-6, N-hydroxy-1,1-dimethyl-2-(5-(trifluoromethyl)pyrimidin-2-yl)isoindoline-4-carboxamide] | < 500 | – | < 500 | < 50 | ++ (indicates 5.5<LipE≤6.5) | 30 to 55 (≈ 10.6 to 19.4 µg/mL) | < 500 | –
CC1(C)c2cccc(C(=O)NO)c2CN1c1cnc(C(F)(F)F)nc1 [Compound 22-7, N-hydroxy-1,1-dimethyl-2-(2-(trifluoromethyl)pyrimidin-5-yl)isoindoline-4-carboxamide] | < 500 | – | < 500 | < 50 | ++ (indicates 5.5<LipE≤6.5) | > 55 | < 500 | –
CC1(C)c2cccc(C(=O)NO)c2CN1c1cnc(C(F)(F)F)cn1 [Compound 22-8, N-Hydroxy-1,1-dimethyl-2-(5-(trifluoromethyl)pyrazin-2-yl)isoindoline-4-carboxamide] | – | – | – | < 50 | – | 30 to 55 (≈ 10.6 to 19.4 µg/mL) | – | IC50 (HDAC5): > 1000 nM; IC50 (HDAC7): > 1000 nM; IC50 (HDAC9): > 1000 nM; Bioavailability [6, 10]: 81 % F; t1/2 [6, 10]: 10.2 h; t1/2 ([6]; IV 1 mg/kg, male Balb/c nude mice): 9.4 h; AUC(0-t) [6, 11]: 3.8 µM·h; Cmax [6, 11]: 4.2 µM; half-life [6, 11]: 10.2 h; AUC(0-t) [6, 12]: 1 µM·h; C0 [6, 12]: 3.5 µM; clearance [6, 12]: 42 mL/min/kg; half-life [6, 12]: 9.4 h; Vd ([6]; mouse, in vivo, IV 1 mg/kg, male Balb/c nude mice, read-out: Vss): 18 L/kg; time free drug levels maintained over the cellular IC50 ([6]; single 5 mg/kg i.p. dose, mice): up to 4 h
O=C(NO)c1cccc2c1CN(c1ccc(C(F)(F)F)cn1)C2 [Compound 45-1, N-hydroxy-2-(5-(trifluoromethyl)pyridin-2-yl)isoindoline-4-carboxamide] | < 500 | improved potency | – | – | – | – | – | IC50 (full-length human HDAC11 [3]; Table 5, read-out: HDAC11 IC50): < 500 nM; microsomal CLint ([1]; Table 5): 51 to 100 µL/min/mg; microsomal stability, in words [1]: significant loss of microsomal stability; LipE (HDAC11; [7]): ++ (indicates 5.5<LipE≤6.5)
O=C(NO)c1cccc2c1CCN(c1nc3ccccc3[nH]1)C2 [Compound 50-2] | – | only modest HDAC11 activity | – | – | – | – | – | IC50 (full-length human HDAC11 [3]; [13]): 510 to 2000 nM; IC50 (full-length human HDAC11 [3]; Table 4, read-out: HDAC11 IC50): > 1000 nM; IC50 (HDAC6; [14]): > 2000 nM; IC50 (HDAC6; Table 4, read-out: HDAC6 IC50): > 1000 nM; HDAC6 potency, in words (HDAC6; text comparison with lead 50-4): no significant HDAC6 potency; microsomal CLint ([1]; Table 4, read-out: m-CL-int): < 50 µL/min/mg; LipE (HDAC11; [15]): + (indicates LipE≤5.5)
O=C(NO)c1cccc2c1CCN(c1nc3ccccc3[nH]1)CC2 [Compound 50-3] | – | – | – | – | – | – | – | IC50 (full-length human HDAC11 [3]; Table 4, read-out: HDAC11 IC50): < 500 nM; increase in potency against HDAC11 (full-length human HDAC11 [3]; relative to the tetrahydroisoquinoline core): > 10 fold; IC50 (HDAC6; Table 4, read-out: HDAC6 IC50): > 1000 nM; microsomal CLint ([1]; Table 4, read-out: m-CL-int): > 100 µL/min/mg; LipE (HDAC11; [15]): + (indicates LipE≤5.5)
O=C(NO)c1ccc2c(c1)CN(c1nc3ccccc3[nH]1)CC2 [Compound 50-4] | – | – | – | – | – | – | – | IC50 (full-length human HDAC11 [3]; [13]): > 2000 nM; IC50 (HDAC6; [14]): < 500 nM
O=C(NO)c1ccc2c(c1)CCN(c1nc3ccccc3[nH]1)C2 [Compound 50-5] | – | loss of HD AC 11 potency | – | – | – | – | – | IC50 (full-length human HDAC11 [3]; [13]): > 2000 nM; IC50 (HDAC6; [14]): < 500 nM
O=C(NO)c1cccc2c1CN(c1nc3ccccc3[nH]1)CC2 [Compound 50-6] | – | – | – | – | – | – | – | IC50 (full-length human HDAC11 [3]; [13]): > 2000 nM; loss in activity vs. HDAC11 (full-length human HDAC11 [3]; relative to initial lead 50-4): 2 fold; IC50 (HDAC6; [14]): < 500 nM; loss in potency vs. HDAC6 (HDAC6; relative to initial lead 50-4): 20 fold
